Active and inactive are the calls of the source.
Key:
[1] = cytotoxicity in HEK-293T cells, dose response, cytotoxicity control for BCR NF-kB inhibitor project, luminescence, B-cell screen hits (AID 489021); type: functional, cell-based;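 also: HEK-293T cells carrying an NF-kB luciferase reporter; cells exposed to compound for about 14 hours before viability readout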
HEK293 [2] = assay: SAR Analysis of small molecule inhibitors of T-cell specific antigen receptor-induced NF-kB activation in a HEK-293T cell line using a luminescence assay - Set 2. [Related pubchem assays (depositor defined):AID435003, AID435012, AID489026]; type: functional, cell-based; conditions: Homo sapiens
HEK293 [3] = assay: cytotoxicity in HEK293T NF-kB-Luc cells, SAR follow-up, cytotoxicity control for NF-kB activator project, cell-based, resazurin fluorescence (AID 493251); type: functional; conditions: Homo sapiens
Jurkat = assay: SAR Analysis of small molecule inhibitors of T-cell specific antigen receptor-induced NF-kB activation in a Jurkat cell line using a luminescence assay - Set 2. [Related pubchem assays (depositor defined):AID435003, AID435012, AID465]; type: functional, cell-based; conditions: Homo sapiens
Cytochrome P450 2C19 = Cytochrome P450 2C19 (Homo sapiens, UniProt P33261); assay: Cytochrome panel assay with activity outcomes. Panel member name: p450-cyp2c19 Compounds with AC50 equal or less than 10 uM are considered active; type: functional; conditions: read-out: AC50
[4] = inhibitors of intracellular T. cruzi replication, confirmation, NIH3T3 host cells, beta-gal luminescence (AID 2044); type: functional, cell-based;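 also: intracellular parasites grown in NIH/3T3 mouse fibroblasts as host cells; luminescent beta-galactosidase reporter signal from transgenic T. cruzi replicating inside host cells; inhibitors lower the luminescence signal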
[5] = cytotoxicity toward NIH3T3 fibroblasts, dose response, counter-screen, cell-based, ATP luminescence, mouse fibroblasts (AID 2010); type: functional;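 also: cells exposed to compound for about 90 hours before reading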
Escherichia coli [6] = assay: microbe, parasite or virus in culture
Escherichia coli [7] = assay: microbe, parasite or virus in culture; remark: listed apart in the source

Sequence of Cytochrome P450 2C19 (P33261 whole entry): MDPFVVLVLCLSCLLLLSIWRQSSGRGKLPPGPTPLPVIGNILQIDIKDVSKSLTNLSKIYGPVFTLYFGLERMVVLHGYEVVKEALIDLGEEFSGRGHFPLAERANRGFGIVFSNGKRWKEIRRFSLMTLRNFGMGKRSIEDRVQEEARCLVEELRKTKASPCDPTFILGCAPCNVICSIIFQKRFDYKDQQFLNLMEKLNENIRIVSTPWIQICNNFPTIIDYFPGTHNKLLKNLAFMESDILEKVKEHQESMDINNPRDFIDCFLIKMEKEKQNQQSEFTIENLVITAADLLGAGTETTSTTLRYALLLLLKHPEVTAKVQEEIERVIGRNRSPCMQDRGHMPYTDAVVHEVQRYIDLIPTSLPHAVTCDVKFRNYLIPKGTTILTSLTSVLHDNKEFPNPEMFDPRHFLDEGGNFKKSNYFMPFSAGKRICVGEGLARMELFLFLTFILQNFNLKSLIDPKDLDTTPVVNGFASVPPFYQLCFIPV

SMILES	IC50 [1]	IC50 (HEK293 [2])	IC50 (HEK293 [3])	IC50 (Jurkat)	AC50 (Cytochrome P450 2C19)	EC50 [4]	EC50 [5]	AC50 (Escherichia coli [6])	AC50 (Escherichia coli [7])
CN(C)C(=O)CCc1nc(-c2ccc(C(C)(C)C)cc2)no1	> 80 µM (inactive)	48.5 µM (inactive)	> 80 µM (inactive)	> 79 µM (inactive)	22.4 µM (inconclusive)	–	–	–	–
N#C/C(=C\c1ccc(N2CCCCC2)c([N+](=O)[O-])c1)c1nn(-c2ccccc2)c(N)c1C#N	–	–	–	–	–	1.81 µM (active)	> 30 µM (not active)	> 380 µM (inactive)	26.2 µM (active)
